Source: patent publication US20250324977A1, “ENGINEERED BACTERIA FOR ENHANCED CROP PRODUCTION” (The Regents of the University of California, priority 2022, published 2025)

Columns and labels:
[1] = system: Arabidopsis; experiment: Combinatorial root growth assay with plant growth media supplied with Trp; assay type: in vivo
Method: To further test this hypothesis, we supplied plant growth media with Trp (FIG. 4, FIGS. 13 and 14) and repeated the combinatorial assay. […] In contrast, root growth might improve if the WCS417 strain are metabolically active only around the root tips. […] However, at 10 μM, Trp inhibited the root growth of plants colonized with the wild-type WCS417 strain. […] Additionally, we inoculated the engineered strains to the Trp-overproducing Arabidopsis mutant line. Root growth and development of this Arabidopsis mutant line are not also impaired (FIG. 4).
First, Arabidopsis seeds are sterilized with 70% ethanol for 2 min and 10% bleach for 5 min. These seeds are rinsed five times with sterile water. Sterilized seeds are kept in a 4° C. fridge for 3 days and then are horizontally individually dispensed on the surface of 1/2 MS agar plates. The plates are vertically incubated in a plant growth chamber under a light cycle of 8 h dark and 16 h light for 6 days. […] On the following day, cultures are washed three times with sterile 10 mM MgCl2 solution and measured for values at OD600nm using an Eppendorf Spectro reader. Uniformly germinated 6-day-old seedlings are inoculated with 1 μL of OD600nm=0.2 culture of engineered WCS417 strains. […] Collected photos are analyzed using EZ-Root-VIS software (Shahzad et al., 2018) for primary root length, lateral root number, and total length.

[2] = system: Arabidopsis roots; details: in vivo; cited from earlier work

| SMILES | root growth ([1]; 0.1 μM of Trp in plant growth media) | root growth of plants colonized with the wild-type WCS417 strain ([1]; 10 μM Trp in plant growth media) | level of externally added IAA that significantly changes root phenotypes [2] [µM] |
| --- | --- | --- | --- |
| N[C@@H](Cc1c[nH]c2ccccc12)C(=O)O [Trp, tryptophan] | did not see much impact | inhibited |  |
| O=C(O)Cc1c[nH]c2ccccc12 [IAA, Indole-3-acetic acid] |  |  | 0.01 to 0.1 |
